# According to paper PMC10387993, “New pyrimidine-N-β-D-glucosides: synthesis, biological evaluation, and molecular docking investigations” (Turkish Journal of Chemistry, 2023):
# Like-named read-outs stand apart in the source and are kept apart here.
# Assays:
# Type in all cases: cell-based
# [1] = tested on: A. actinomycetemcomitans ATCC 33384; experiment: Microdilution MIC assay; conditions: Aggregatibacter actinomycetemcomitans, ATCC33384; A. actinomycetemcomitans ATCC 33384, 24 h at 35 °C
# Procedure, shortened: (§1)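 MICs come from a microwell dilution format incubated for 24 h at 35 °C, with the endpoint being the lowest concentration that prevented visible growth.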
# E. faecalis ATCC 29212 = experiment: Microdilution MIC assay; conditions: E. faecalis ATCC 29212, 24 h at 35 °C
# Procedure, shortened: as §1
# [2] = tested on: E. faecalis VRE ATCC 19433; experiment: Microdilution MIC assay; conditions: Enterococcus faecalis; E. faecalis VRE ATCC 19433, 24 h at 35 °C
# Procedure, shortened: as §1
# S. aureus ATCC 25923 = experiment: Microdilution MIC assay; conditions: S. aureus ATCC 25923, 24 h at 35 °C
# Procedure, shortened: as §1
# S. gordonii NCTC 7870 = experiment: Microdilution MIC assay; conditions: Streptococcus gordonii, NCTC7870; S. gordonii NCTC 7870, 24 h at 35 °C
# Procedure, shortened: as §1
# [3] = LDH cytotoxic activity assay, A549; conditions: human, A549 cells; for cytotoxicity at 24 h, 25 μg/mL: A549, 25 μg/mL; for cytotoxicity at 24 h, 50 μg/mL: A549, 50 μg/mL; for cytotoxicity at 24 h, 75 μg/mL: A549, 75 μg/mL; for cytotoxicity at 24 h, 100 μg/mL: A549, 100 μg/mL
# Protocol: (§2) The cell lines were cultured in a cell medium (Dulbecco’s modified eagle’s or RPMI 1640) enriched with 10% (v/v) fetal bovine serum and 2% (v/v) Penicillin-Streptomycin (10,000 U/mL). First, old medium was removed out of the flask when the cells reached approximately 80% confluence. Next, cells were taken from the flasks surface using trypsin-EDTA solution and then subjected to centrifugation. Following, the cell pellet was suspended with fresh media and was inoculated into wells.
# (§3) Approximately 5 × 10^3 cells in 100 μL were placed into 96-well plates as triplicates and treated with 25, 50, 75, and 100 μg/mL concentrations of test compounds at 37 °C with 5% CO2 for 24 h. LDH activity was obtained by determining absorbance at 492–630 nm using a microplate reader.
# [4] = LDH cytotoxic activity assay, Hep3B; conditions: human, Hep3B cells
# Protocol: as §2, §3
# [5] = LDH cytotoxic activity assay, MCF7; conditions: human, MCF7 cells; for cytotoxicity at 24 h, 25 μg/mL: MCF7, 25 μg/mL; for cytotoxicity at 24 h, 50 μg/mL: MCF7, 50 μg/mL; for cytotoxicity at 24 h, 75 μg/mL: MCF7, 75 μg/mL
# Protocol: as §2, §3
# [6] = LDH cytotoxic activity assay, FL; conditions: human, FL cells (normal cells)
# Protocol: as §2, §3
# [7] = Enterococcus faecalis, ATCC29212, 24 h, read-out: MIC
# [8] = Staphylococcus aureus, ATCC25923, 24 h, read-out: MIC
# [9] = as the column head prints, head prints FL
SMILES,MIC [1],MIC (E. faecalis ATCC 29212; [7]),MIC [2],MIC (S. aureus ATCC 25923; [8]),MIC (S. gordonii NCTC 7870),further results
"CC(=O)OC[C@H]1O[C@@H](Nc2nc(-c3cccnc3)cc(-c3cccc(C)c3)n2)[C@H](OC(C)=O)[C@@H](OC(C)=O)[C@@H]1OC(C)=O [Compound 14, 2,3,4,6-tetra-O-acetyl-N-[4-(3-methylphenyl)-6-pyridin-3-ylpyrimidin-2-yl]-β-D-glucopyranosylamine]",> 1000 µg/mL,31.2 to 125 µg/mL,1000 µg/mL,500 µg/mL,> 1000 µg/mL,MIC (E. faecalis ATCC 29212): 31.25 µg/mL
"Cc1ccc(-c2cc(-c3cccnc3)nc(N[C@@H]3O[C@H](CO)[C@@H](O)[C@H](O)[C@H]3O)n2)cc1 [Compound 8, N-[4-(4-methylphenyl)-6-pyridin-3-ylpyrimidin-2-yl]-β-D-glucopyranosylamine]",500 µg/mL,1000 µg/mL,500 µg/mL,15.6 to 125 µg/mL,250 µg/mL,"cytotoxicity at 24 h, 25 μg/mL [3]: 28.1%; cytotoxicity at 24 h, 50 μg/mL [3]: 26%; cytotoxicity at 24 h, 75 μg/mL [3]: 47.4%; cytotoxicity at 24 h, 100 μg/mL [3]: 58.1%; cytotoxicity at 24 h, 25 μg/mL [4]: 15.6%; cytotoxicity at 24 h, 50 μg/mL [4]: 20.5%; cytotoxicity at 24 h, 75 μg/mL [4]: 36.2%; cytotoxicity at 24 h, 100 μg/mL [4]: 52.9%; cytotoxicity at 24 h, 25 μg/mL [5]: 10%; cytotoxicity at 24 h, 50 μg/mL [5]: 20.1%; cytotoxicity at 24 h, 75 μg/mL [5]: 32.8%; cytotoxicity at 24 h, 25 μg/mL ([6]; FL): 20.8%; cytotoxicity at 24 h, 50 μg/mL ([6]; FL): 34.1%; cytotoxicity at 24 h, 75 μg/mL ([6]; FL): 41%; cytotoxicity at 24 h, 100 μg/mL ([6]; FL): 69.9%; cytotoxicity at 24 h, 100 μg/mL [6, 9]: 43.5%; MIC (S. aureus ATCC 25923): 15.62 µg/mL"
"CC(=O)OC[C@H]1O[C@@H](Nc2nc(-c3ccncc3)cc(-c3ccccc3C)n2)[C@H](OC(C)=O)[C@@H](OC(C)=O)[C@@H]1OC(C)=O [Compound 12, 2,3,4,6-tetra-O-acetyl-N-[4-(2-methylphenyl)-6-pyridin-4-ylpyrimidin-2-yl]-β-D-glucopyranosylamine]",> 1000 µg/mL,250 µg/mL,1000 µg/mL,> 1000 µg/mL,> 1000 µg/mL,–
"CC(=O)OC[C@H]1O[C@@H](Nc2nc(-c3ccncc3)cc(-c3ccc(C)cc3)n2)[C@H](OC(C)=O)[C@@H](OC(C)=O)[C@@H]1OC(C)=O [Compound 18, 2,3,4,6-tetra-O-acetyl-N-[4-(4-methylphenyl)-6-pyridin-4-ylpyrimidin-2-yl]-β-D-glucopyranosylamine]",> 1000 µg/mL,–,1000 µg/mL,500 µg/mL,> 1000 µg/mL,–
"CC(=O)OC[C@H]1O[C@@H](Nc2nc(-c3cccnc3)cc(-c3ccccc3C)n2)[C@H](OC(C)=O)[C@@H](OC(C)=O)[C@@H]1OC(C)=O [Compound 11, 2,3,4,6-tetra-O-acetyl-N-[4-(2-methylphenyl)-6-pyridin-3-ylpyrimidin-2-yl]-β-D-glucopyranosylamine]",> 1000 µg/mL,–,> 1000 µg/mL,> 1000 µg/mL,> 1000 µg/mL,–
"CC(=O)OC[C@H]1O[C@@H](Nc2nc(-c3ccccn3)cc(-c3ccccc3C)n2)[C@H](OC(C)=O)[C@@H](OC(C)=O)[C@@H]1OC(C)=O [Compound 10, 2,3,4,6-tetra-O-acetyl-N-[4-(2-methylphenyl)-6-pyridin-2-ylpyrimidin-2-yl]-β-D-glucopyranosylamine]",> 1000 µg/mL,500 µg/mL,125 µg/mL,> 1000 µg/mL,> 1000 µg/mL,–
"CC(=O)OC[C@H]1O[C@@H](Nc2nc(-c3ccncc3)cc(-c3cccc(C)c3)n2)[C@H](OC(C)=O)[C@@H](OC(C)=O)[C@@H]1OC(C)=O [Compound 15, 2,3,4,6-tetra-O-acetyl-N-[4-(3-methylphenyl)-6-pyridin-4-ylpyrimidin-2-yl]-β-D-glucopyranosylamine]",> 1000 µg/mL,31.2 to 125 µg/mL,1000 µg/mL,500 µg/mL,> 1000 µg/mL,MIC (E. faecalis ATCC 29212): 31.25 µg/mL
"CC(=O)OC[C@H]1O[C@@H](Nc2nc(-c3cccc(C)c3)cc(-c3ccccn3)n2)[C@H](OC(C)=O)[C@@H](OC(C)=O)[C@@H]1OC(C)=O [Compound 13, 2,3,4,6-tetra-O-acetyl-N-[4-(3-methylphenyl)-6-pyridin-2-ylpyrimidin-2-yl]-β-D-glucopyranosylamine]",> 1000 µg/mL,31.2 to 125 µg/mL,1000 µg/mL,500 µg/mL,> 1000 µg/mL,MIC (E. faecalis ATCC 29212): 31.25 µg/mL
"CC(=O)OC[C@H]1O[C@@H](Nc2nc(-c3ccc(C)cc3)cc(-c3cccnc3)n2)[C@H](OC(C)=O)[C@@H](OC(C)=O)[C@@H]1OC(C)=O [Compound 17, 2,3,4,6-tetra-O-acetyl-N-[4-(4-methylphenyl)-6-pyridin-3-ylpyrimidin-2-yl]-β-D-glucopyranosylamine]",> 1000 µg/mL,–,1000 µg/mL,> 1000 µg/mL,> 1000 µg/mL,–

# Continued by falling MIC [1], values first:
MIC [1],MIC (E. faecalis ATCC 29212; [7]),MIC [2],MIC (S. aureus ATCC 25923; [8]),MIC (S. gordonii NCTC 7870),SMILES,further results
500 µg/mL,> 1000 µg/mL,> 1000 µg/mL,500 µg/mL,1000 µg/mL,"Cc1ccccc1-c1cc(-c2ccncc2)nc(N[C@@H]2O[C@H](CO)[C@@H](O)[C@H](O)[C@H]2O)n1 [Compound 3, N-[4-(2-methylphenyl)-6-pyridin-4-ylpyrimidin-2-yl]-β-D-glucopyranosylamine]",–
250 µg/mL,> 1000 µg/mL,> 1000 µg/mL,–,500 µg/mL,"Cc1ccccc1-c1cc(-c2cccnc2)nc(N[C@@H]2O[C@H](CO)[C@@H](O)[C@H](O)[C@H]2O)n1 [Compound 2, N-[4-(2-methylphenyl)-6-pyridin-3-ylpyrimidin-2-yl]-β-D-glucopyranosylamine]",–
250 µg/mL,> 1000 µg/mL,> 1000 µg/mL,–,125 µg/mL,"Cc1cccc(-c2cc(-c3cccnc3)nc(N[C@@H]3O[C@H](CO)[C@@H](O)[C@H](O)[C@H]3O)n2)c1 [Compound 5, N-[4-(3-methylphenyl)-6-pyridin-3-ylpyrimidin-2-yl]-β-D-glucopyranosylamine]","cytotoxicity at 24 h, 25 μg/mL [3]: 24.4%; cytotoxicity at 24 h, 50 μg/mL [3]: 31.3%; cytotoxicity at 24 h, 75 μg/mL [3]: 51.5%; cytotoxicity at 24 h, 100 μg/mL [3]: 66.3%; cytotoxicity at 24 h, 25 μg/mL [4]: 14.1%; cytotoxicity at 24 h, 50 μg/mL [4]: 25.5%; cytotoxicity at 24 h, 75 μg/mL [4]: 42.8%; cytotoxicity at 24 h, 100 μg/mL [4]: 52.5%; cytotoxicity at 24 h, 25 μg/mL [5]: 8.23%; cytotoxicity at 24 h, 50 μg/mL [5]: 12.2%; cytotoxicity at 24 h, 75 μg/mL [5]: 24.9%; cytotoxicity at 24 h, 25 μg/mL ([6]; FL): 16.6%; cytotoxicity at 24 h, 50 μg/mL ([6]; FL): 32.9%; cytotoxicity at 24 h, 75 μg/mL ([6]; FL): 62.6%; cytotoxicity at 24 h, 100 μg/mL ([6]; FL): 76.8%; cytotoxicity at 24 h, 100 μg/mL [6, 9]: 36.4%"
250 µg/mL,250 µg/mL,1000 µg/mL,250 µg/mL,500 µg/mL,"Cc1ccc(-c2cc(-c3ccccn3)nc(N[C@@H]3O[C@H](CO)[C@@H](O)[C@H](O)[C@H]3O)n2)cc1 [Compound 7, N-[4-(4-methylphenyl)-6-pyridin-2-ylpyrimidin-2-yl]-β-D-glucopyranosylamine]","cytotoxicity at 24 h, 25 μg/mL [3]: 24.3%; cytotoxicity at 24 h, 50 μg/mL [3]: 24.4%; cytotoxicity at 24 h, 75 μg/mL [3]: 27.4%; cytotoxicity at 24 h, 100 μg/mL [3]: 40.6%; cytotoxicity at 24 h, 25 μg/mL [4]: 9.37%; cytotoxicity at 24 h, 50 μg/mL [4]: 17%; cytotoxicity at 24 h, 75 μg/mL [4]: 34.3%; cytotoxicity at 24 h, 100 μg/mL [4]: 44.5%; cytotoxicity at 24 h, 25 μg/mL [5]: 4.05%; cytotoxicity at 24 h, 50 μg/mL [5]: 20.1%; cytotoxicity at 24 h, 75 μg/mL [5]: 26.6%; cytotoxicity at 24 h, 25 μg/mL ([6]; FL): 18.1%; cytotoxicity at 24 h, 50 μg/mL ([6]; FL): 30.5%; cytotoxicity at 24 h, 75 μg/mL ([6]; FL): 46.5%; cytotoxicity at 24 h, 100 μg/mL ([6]; FL): 73.2%; cytotoxicity at 24 h, 100 μg/mL [6, 9]: 40.7%"
